According to paper PMC8955485, “Journey on VX-809-Based Hybrid Derivatives towards Drug-like F508del-CFTR Correctors: From Molecular Modeling to Chemical Synthesis and Biological Assays” (Pharmaceuticals, 2022):
pEC50: −log10 of the molar value.

Tests used:
Assay type in all cases: cell-based
Set-up in all cases: expressed in transfected cells
F508del-CFTR [1] = biological target: T1, F508del-CFTR (Homo sapiens, UniProt P13569, DEL508-508); test: HS-YFP functional assay of corrector combinations with VX-445; settings: CFBE41o- cells; 24 h; VX-445 3 µM; forskolin 20 µM plus VX-770 1 µM
T1 sequence (P13569 with tags, fused parts or gaps DEL508-508): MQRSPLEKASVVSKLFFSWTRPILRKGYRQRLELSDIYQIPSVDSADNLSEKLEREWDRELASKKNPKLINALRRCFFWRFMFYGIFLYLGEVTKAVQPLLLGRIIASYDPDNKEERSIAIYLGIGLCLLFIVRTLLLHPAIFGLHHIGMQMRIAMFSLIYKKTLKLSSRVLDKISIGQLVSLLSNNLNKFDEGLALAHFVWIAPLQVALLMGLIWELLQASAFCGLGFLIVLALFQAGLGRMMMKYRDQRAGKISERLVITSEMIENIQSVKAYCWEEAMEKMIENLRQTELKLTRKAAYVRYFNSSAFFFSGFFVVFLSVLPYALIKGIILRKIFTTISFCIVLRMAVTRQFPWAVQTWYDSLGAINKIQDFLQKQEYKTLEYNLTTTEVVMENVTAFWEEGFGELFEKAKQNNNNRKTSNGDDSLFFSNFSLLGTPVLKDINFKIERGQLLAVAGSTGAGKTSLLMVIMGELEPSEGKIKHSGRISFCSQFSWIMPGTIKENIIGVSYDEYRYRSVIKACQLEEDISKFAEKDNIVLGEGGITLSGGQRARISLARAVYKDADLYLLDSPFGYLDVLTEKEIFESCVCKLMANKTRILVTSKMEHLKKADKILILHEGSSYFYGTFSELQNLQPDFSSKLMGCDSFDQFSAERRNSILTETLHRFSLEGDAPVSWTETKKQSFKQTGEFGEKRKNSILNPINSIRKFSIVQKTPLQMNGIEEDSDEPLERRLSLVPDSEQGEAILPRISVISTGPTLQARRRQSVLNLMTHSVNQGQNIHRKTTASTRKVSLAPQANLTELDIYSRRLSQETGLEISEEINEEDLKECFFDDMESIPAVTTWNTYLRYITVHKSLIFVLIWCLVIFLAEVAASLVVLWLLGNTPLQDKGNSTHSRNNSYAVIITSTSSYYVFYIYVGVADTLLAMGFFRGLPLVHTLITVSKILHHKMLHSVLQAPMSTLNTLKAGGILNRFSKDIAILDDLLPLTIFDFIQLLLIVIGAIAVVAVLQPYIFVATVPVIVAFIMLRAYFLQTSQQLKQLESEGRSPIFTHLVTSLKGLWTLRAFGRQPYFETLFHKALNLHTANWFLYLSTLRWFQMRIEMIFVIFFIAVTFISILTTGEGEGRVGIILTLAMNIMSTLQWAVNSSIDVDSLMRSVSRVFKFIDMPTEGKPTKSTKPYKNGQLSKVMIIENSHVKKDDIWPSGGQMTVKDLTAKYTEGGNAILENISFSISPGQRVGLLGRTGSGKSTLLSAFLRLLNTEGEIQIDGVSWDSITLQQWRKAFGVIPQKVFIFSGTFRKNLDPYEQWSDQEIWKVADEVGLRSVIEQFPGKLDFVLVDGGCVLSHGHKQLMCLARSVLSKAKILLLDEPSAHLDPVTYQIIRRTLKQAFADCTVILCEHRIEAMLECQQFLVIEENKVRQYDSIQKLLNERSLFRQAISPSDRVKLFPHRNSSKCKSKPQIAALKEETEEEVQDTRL
Description: Now, to further characterize the activity of these compounds, we tested the novel derivates 9b, 9g, and 9j, along with VX-809 as a positive control, in combination with VX-445 (3 µM), in CFBE41o-cells stably expressing F508del-CFTR by using the YFP functional assay (Figure 7). To this aim, cells were treated for 24 h with test compounds at different concentrations, in combination with VX-445 (3 µM), and then assayed after maximal stimulation of F508del-CFTR in the presence of forskolin (20 µM) plus VX-770 (1 µM).
(§1) CFBE41o-cells co-expressing mutants CFTR and HS-YFP were plated (50,000 cells/well) on clear-bottom 96-well black microplates (Corning Life Sciences, Acton, MA) and grown at 37 °C in 5% CO2 for 24 h. For the corrector assay, CFBE41o-cells were treated for further 24 h with compounds as indicated. The following day, prior to the assay, the culture medium was removed and cells were stimulated for 30 min at 37 °C with 60 µL PBS (containing 137 mM NaCl, 2.7 mM KCl, 8.1 mM Na2HPO4, 1.5 mM KH2PO4, 1mM CaCl2, and 0.5 mM MgCl2) plus forskolin (20 µM) and VX-770 (1 µM).
(§2) Microplates containing CFBE41o-cells were then transferred to a plate reader (FluoStar Galaxy; BMG Labtech, Offenburg, Germany) equipped with excitation (HQ500/20X: 500 ± 10 nm) and emission (HQ535/30M: 535 ± 15 nm) filters for YFP (Chroma Technology, Brattleboro, VT, USA). During the assay fluorescence was measured continuously for 14 s with 2 s before and 12 s after injection of an iodide containing solution (165 µL of a modified PBS containing I^- instead of Cl^-; final I^- concentration in the well: 100 mM).
(§3) Fluorescence data were normalized for the initial value and fluorescence quenching rate following I^- influx, were determined by fitting the final 10 s of data for each well with an exponential function to extrapolate initial slope (dF/dt).
Figure 7 Functional analysis of corrector combinations. F508del-CFTR activity was determined in CFBE41o-cells with stable expression of the HS-YFP. Cells were treated for 24 h with VX-445 (3 µM) alone or in combination with 9b, or 9g, or 9j, or VX-809 at different concentrations (from 102 nM to 10 µM). The YFP-based assay was performed after stimulation of CFTR activity with forskolin (20 µM) plus VX-770 (1 µM).

F508del-CFTR [2] = biological target: T1, F508del-CFTR; test: HS-YFP functional assay for F508del-CFTR correctors in CFBE41o- cells; settings: CFBE41o- cells stably expressing F508del-CFTR and HS-YFP; 24 h incubation; stimulation with forskolin 20 µM plus VX-770 1 µM
Description: The ability of these compounds to correct the basic defects related to F508del mutant was evaluated on immortalized CFBE41o-bronchial epithelial cells stably expressing F508del-CFTR and the halide sensitive yellow fluorescent protein (HS-YFP).
The measurements of the rate of HS-YFP quenching caused by iodide influx allowed us to determine the activity of F508del-CFTR, after incubation with the compounds, as cited. Activity was then compared to that of cells treated with the corrector VX-809 (1 µM) or with vehicle alone (DMSO).
Within the novel third series of hybrids herein proposed, based on their potency and efficacy in terms of CFTR rescue, we selected six compounds and determined the dose–response relationships (Figure 6). To this aim, F508del-CFTR expressing CFBE41o-cells were treated for 24 h with our hybrids 9b, 9f, 9g, 9h, 9j, and 9y and then mutant CFTR activity was measured by using the YFP functional assay (see Materials and Methods section for details).
Immortalized bronchial epithelial CFBE41o-cells with stable co-expression of the halide-sensitive yellow fluorescent protein (HS-YFP) and of F508del-CFTR were cultured using MEM medium supplemented with 10% fetal calf serum, 100 U/mL penicillin, 2 mM L-glutamine, and […] streptomycin.
as §1, §2, §3
To evaluate the dose–response relationships, activity slopes obtained for each compound at the different concentrations were fitted with the Hill equation using the Igor software (WaveMetrics) to extrapolate EC50, maximal effect, and Hill coefficient.

F508del-CFTR [3] = biological target: T1, F508del-CFTR; test: Western blot analysis of CFTR expression pattern (C band/B band ratio); settings: F508del-CFTR/HS-YFP CFBE41o- cells; 24 h; 50 nM and 1 µM; versus DMSO
From the text: We then biochemically estimated the rescue of the trafficking defect by analyzing the electrophoretic mobility of mutant CFTR protein. In Western blots, CFTR protein can be detected as two bands B and C, of approximately 150 and 170 kDa, respectively. Band B corresponds to immature, partially glycosylated CFTR, while band C corresponds to the mature fully glycosylated CFTR. In cells expressing wild-type CFTR protein, the prevalent form is band C, while the main form in cells expressing F508del-CFTR is band B, in agreement with the severe trafficking defect caused by this mutation (Figure 8). To estimate the effect of our molecules on CFTR expression pattern, we treated F508del-CFTR/HS-YFP expressing CFBE41o-cells for 24 h with test compounds 9b, 9g, and 9j (50 nM and 1 µM) VX-809 as a positive control or DMSO as a vehicle alone.
The next day, cells were lysed and the obtained lysates were subjected to SDS-PAGE followed by Western blotting (Figure 8A). Western blot images were analyzed with ImageJ software. CFTR bands, analyzed as ROI, were quantified in each lane after normalization for GAPDH as a loading control. […]
Supernatant protein concentration was calculated using the BCA assay (Euroclone, Milan, Italy). For each sample, 10 μg of total proteins was resolved in 4–20% gradient Criterion TGX precast gels, transferred to nitrocellulose membranes (using a Trans-Blot Turbo system; Bio-Rad, Hercules, CA, USA), and analyzed by Western blotting. Proteins were detected using the antibodies described above and subsequently visualized by chemiluminescence using the SuperSignal West Femto Substrate (Thermo Fisher Scientific, Waltham, MA, USA). […] Images were analyzed with ImageJ software (NIH). Bands were analyzed as ROI, normalized against the GAPDH loading control.
Figure 8 Biochemical analysis of the F508del-CFTR expression pattern: (A). […] Quantification of the C band/B band ratio in experiments as in (A). […]

SMILES: COc1ccc(C(=O)c2sc(NC(=O)C3(c4ccc5c(c4)OCO5)CC3)nc2-c2ccc(OC)cc2)cc1 [Compound 9b]
- effect of combination with VX-445 on F508del-CFTR activity (F508del-CFTR [1]): clear additive effect
- pEC50 (F508del-CFTR [2]): 7.19
- C band/B band ratio (F508del-CFTR [3]): significant enhancement
